According to patent US10253002B2, “Compounds and methods of treating infections” (Neoculi Pty Ltd., priority 2013, dated 2019):
In brackets after ≈: the same amount, converted by molar mass. Several values for one entry are separate records, joined by “and”; a condition that tells them apart may be missing. Equal entries are not always repeated. Where two headings read alike, the source gives them in different places.

Key:
Pseudomonas aeruginosa = assay: Broth microdilution MIC, Example 7 (NCL812 and analogues); format: cell-based; settings: for MIC: Pseudomonas aeruginosa, 24 h
Escherichia coli = assay: as above; format: cell-based; settings: E. coli, 24 hours; for MIC: Escherichia coli
VRE = assay: as above; format: cell-based, Enterococcus spp.; settings: for activity against VRE among analogues: MIC testing, two VRE strains; for MIC: Enterococcus; for VRE / MIC: VRE
How it was run: (§1)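 CLSI broth microdilution against two MRSA and two VRE strains, tested in duplicate with a third run if results differed by more than one two-fold dilution.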

[1] = Bioassay ranking of the analogues tested; settings: M + R (MRSA and VRE combined)
MRSA = assay: Broth microdilution MIC, Example 7 (NCL812 and analogues); format: cell-based, Staphylococcus aureus; settings: for activity against MRSA among analogues: MIC testing, two MRSA strains; for MIC: Staphylococcus aureus; for MRSA / MIC: MRSA
How it was run: as §1

[2] = 24 hours, duplicate lines per compound
[3] = VRE 2, 24 hours, duplicate lines per compound
[4] = MRSA 2, 24 hours, duplicate lines per compound
[5] = read-out: MIC (μg/ml) at 24 hours, P. aeruginosa, 24 hours, duplicate lines per compound
[6] = read-out: MIC (μg/ml) at 24 hours, duplicate lines per compound
[7] = 24 h, read-out: MIC (μg/ml) at 24 hours, VRE 1, VRE 1, 24 hours, duplicate lines per compound
[8] = 24 h, read-out: MIC (μg/ml) at 24 hours, VRE 2, VRE 2, 24 hours, duplicate lines per compound
[9] = bioassay ranking, read-out: VRE
[10] = 24 h, read-out: MIC (μg/ml) at 24 hours, MRSA 1, MRSA 1, 24 hours, duplicate lines per compound
[11] = 24 h, read-out: MIC (μg/ml) at 24 hours, MRSA 2, MRSA 2, 24 hours, duplicate lines per compound
[12] = bioassay ranking, read-out: MRSA

Row | SMILES | MIC (μg/ml) at 24 hours, P. aeruginosa (Pseudomonas aeruginosa; [2]) [µg/mL] | MIC (μg/ml) at 24 hours, E. coli (Escherichia coli; duplicate lines per compound) [µg/mL] | activity against VRE among analogues (VRE) | MIC (μg/ml) at 24 hours, VRE 1 (VRE; [2]) | MIC (μg/ml) at 24 hours, VRE 2 (VRE; [3]) | VRE (VRE; bioassay ranking) [µg/mL] | M + R [1] [µg/mL] | activity against MRSA among analogues (MRSA) | MIC (μg/ml) at 24 hours, MRSA 1 (MRSA; [2]) | MIC (μg/ml) at 24 hours, MRSA 2 (MRSA; [4]) | MRSA (MRSA; bioassay ranking) [µg/mL] | MIC (Pseudomonas aeruginosa; [5]) [µg/mL] | MIC (Escherichia coli; [6]) [µg/mL] | MIC (VRE; [7]) [µg/mL] | MIC (VRE; [8]) [µg/mL] | MIC (VRE; [9]) [µg/mL] | MIC (MRSA; [10]) [µg/mL] | MIC (MRSA; [11]) [µg/mL] | MIC (MRSA; [12]) [µg/mL] | further results
1 | Cl.N=C(N/N=C/c1ccc(Cl)cc1)N/N=C/c1ccc(Cl)cc1Cl [NCL074] | >128 | >128 | greatest activity | 2 µg/mL and 1 µg/mL | 8 µg/mL and 4 µg/mL | 3.75 | 9.875 | greatest activity | 16 µg/mL | 16 µg/mL | 16 |  |  |  |  |  |  |  |  | 
2 | Cl.N=C(N/N=C/c1ccc(Cl)cc1)N/N=C/c1ccc(C(F)(F)F)cc1F [NCL078] |  |  | greatest activity | 2 µg/mL | 2 µg/mL |  | 5.5 | greatest activity |  | 8 µg/mL |  | > 128 | > 128 | 4 | 4 | 3 | 4 | 16 | 8 | 
3 | Cl.N=C(N/N=C/c1ccc(F)cc1)N/N=C/c1ccc(Cl)cc1 [NCL079] |  |  | greatest activity |  |  |  | 4 | greatest activity |  | 8 µg/mL |  | > 128 | > 128 | 2 | 4 | 3 | 4 | 4 | 5 | 
4 | C/C(=N\NC(=N)N/N=C/c1ccc(Cl)cc1)c1ccc(C(F)(F)F)cc1.Cl [NCL080] |  |  | greatest activity |  |  |  | 4 | greatest activity |  | 8 µg/mL |  | > 128 | > 128 | 2 | 4 | 3 | 4 | 4 | 5 | 
5 | C/C(=N\NC(=N)N/N=C/c1ccc(Cl)cc1)c1ccc(Cl)cc1.Cl [NCL081] | >128 | >128 | greatest activity | 1 µg/mL | 4 µg/mL | 2.5 | 3.75 | greatest activity | 4 µg/mL | 8 µg/mL and 4 µg/mL | 5 |  |  |  |  |  |  |  |  | 
6 | Cl.N=C(N/N=C/c1ccc(Cl)cc1)N/N=C/c1ccccc1Cl [NCL082] | >128 | >128 | greatest activity | 4 µg/mL | 2 µg/mL and 4 µg/mL | 3.5 | 5.25 | greatest activity | 8 µg/mL and 4 µg/mL | 8 µg/mL | 7 |  |  |  |  |  |  |  |  | 
7 | Cl.N=C(N/N=C/c1ccc(Cl)cc1)N/N=C/c1ccc(Cl)cc1F [NCL084] |  |  | greatest activity |  |  |  | 3 | greatest activity |  | 4 µg/mL |  | > 128 | > 128 | 2 | 2 | 2 | 2 | 8 | 4 | 
8 | Cl.N=C(NN=Cc1ccc(Cl)cc1)NN=Cc1ccccc1F [NCL088] | >128 | >128 | greatest activity | 4 µg/mL | 4 µg/mL | 4 | 7 | greatest activity | 16 µg/mL and 8 µg/mL | 8 µg/mL | 10 |  |  |  |  |  |  |  |  | 
9 | C/C(=N\NC(=N)N/N=C(\C)c1ccc(C(F)(F)F)cc1)c1ccc(Cl)cc1.Cl [NCL089] |  |  |  |  | 1 µg/mL |  | 2.875 | greatest activity | 8 µg/mL |  |  | > 128 | > 128 | 0.5 | 1 | 0.75 | 4 | 4 | 5 | 
10 | Cl.N=C(N/N=C/c1ccccc1O)N/N=C/c1ccccc1O [NCL107] | >128 | >128 | greatest activity | 32 µg/mL | 128 µg/mL |  | 46 | greatest activity | 8 µg/mL | 16 µg/mL | 12 |  |  |  |  |  |  |  |  | 
11 | CN(C)c1ccc(C=NNC(=N)NN=Cc2ccc(N(C)C)cc2)cc1.Cl [NCL113] | >128 | >128 | greatest activity | 8 µg/mL | 16 µg/mL | 12 | 12 | greatest activity | 16 µg/mL | 8 µg/mL | 12 |  |  |  |  |  |  |  |  | 
12 | Nc1nc(N/N=C/c2ccc(Br)cc2)cc(N/N=C/c2ccc(Br)cc2)n1 [NCL193] |  |  | greatest activity |  |  |  | 3.75 | greatest activity |  |  |  |  |  |  |  | 5 (≈ 10.2 µM) |  |  | 2.5 (≈ 5.11 µM) | MIC (Pseudomonas aeruginosa; read-out: MIC (μg/ml) at 24 hours P. aeruginosa, P. aeruginosa, 24 hours): > 128 µg/mL; MIC (Escherichia coli; read-out: MIC (μg/ml) at 24 hours E. coli): > 128 µg/mL; MIC (VRE; 24 h, read-out: MIC (μg/ml) at 24 hours VRE 1, VRE 1, 24 hours): 4 µg/mL (≈ 8.18 µM); MIC (VRE; 24 h, read-out: MIC (μg/ml) at 24 hours VRE 2, VRE 2, 24 hours): 4 µg/mL (≈ 8.18 µM); MIC (μg/ml) at 24 hours, VRE 2 (VRE; VRE 2, 24 hours): 8 µg/mL (≈ 16.4 µM); MIC (μg/ml) at 24 hours, MRSA 2 (MRSA; MRSA 2, 24 hours): 4 µg/mL (≈ 8.18 µM); MIC (MRSA; 24 h, read-out: MIC (μg/ml) at 24 hours MRSA 1, MRSA 1, 24 hours): 2 µg/mL (≈ 4.09 µM); MIC (MRSA; 24 h, read-out: MIC (μg/ml) at 24 hours MRSA 2, MRSA 2, 24 hours): 2 µg/mL (≈ 4.09 µM)
